Source: the supplement of paper PMC8092582
Structures can show the parent of a compound that is named as a salt. ± gives the standard deviation of the averaged measurements.

System: HeLa
Test: cell viability (CellTiter-Glo) relative to median of lowest-dilution wells of all drugs (fraction); higher = more viable cells
Protocol: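 HeLa control and CRISPR DDX11 knockout cells were seeded in 384-well plates and incubated for 72 h with each of 64 […] drugs at six concentrations. Viability was read with CellTiter-Glo and normalised to the median of the lowest (6th) dilution wells of all drugs. Two biological replicates (BR1, BR2) are averaged; the concentration unit is not stated.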

[1] = drug concentration (unit not stated): 0.04, genotype: DDX11 knockout
[2] = drug concentration (unit not stated): 0.04, genotype: control (DDX11 wild type)
[3] = drug concentration (unit not stated): 0.12, genotype: DDX11 knockout
[4] = drug concentration (unit not stated): 0.12, genotype: control (DDX11 wild type)
[5] = drug concentration (unit not stated): 0.37, genotype: DDX11 knockout
[6] = drug concentration (unit not stated): 0.37, genotype: control (DDX11 wild type)
[7] = drug concentration (unit not stated): 1.11, genotype: DDX11 knockout
[8] = drug concentration (unit not stated): 1.11, genotype: control (DDX11 wild type)
[9] = drug concentration (unit not stated): 3.33, genotype: DDX11 knockout
[10] = drug concentration (unit not stated): 3.33, genotype: control (DDX11 wild type)
[11] = drug concentration (unit not stated): 10, genotype: DDX11 knockout
[12] = drug concentration (unit not stated): 10, genotype: control (DDX11 wild type)
[13] = drug concentration (unit not stated): 0.01, genotype: DDX11 knockout
[14] = drug concentration (unit not stated): 0.01, genotype: control (DDX11 wild type)

SMILES | cell viability [1] | cell viability [2] | cell viability [3] | cell viability [4] | cell viability [5] | cell viability [6] | cell viability [7] | cell viability [8] | cell viability [9] | cell viability [10] | cell viability [11] | cell viability [12] | cell viability [13] | cell viability [14] | cell viability (drug concentration (unit not stated): 30, genotype: DDX11 knockout) | cell viability (drug concentration (unit not stated): 30, genotype: control (DDX11 wild type))
C[C@@]1(CO)[C@H](O)CC[C@@]2(C)[C@H]1CC[C@H]1C[C@@H]3C[C@@]12CC[C@]3(O)CO [Aphidicolin] | 1.02 ± 0.036 | 1.06 ± 0.031 | 1.06 ± 0.089 | 1.08 ± 0.11 | 0.91 ± 0.027 | 1.06 ± 0.24 | 0.58 ± 0.046 | 0.79 ± 0.27 | 0.428 ± 0.045 | 0.523 ± 0.16 | 0.182 ± 0.027 | 0.23 ± 0.13 | – | – | – | –
Nc1nc2[nH]cc(CCc3ccc(C(=O)N[C@@H](CCC(=O)O)C(=O)O)cc3)c2c(=O)[nH]1 [Pemetrexed] | 0.983 ± 0.29 | 0.903 ± 0.41 | 0.911 ± 0.26 | 0.98 ± 0.53 | 0.781 ± 0.21 | 0.814 ± 0.4 | 0.741 ± 0.18 | 0.756 ± 0.34 | – | – | – | – | 1 ± 0.099 | 0.99 ± 0.11 | – | –
C=CCn1c(=O)c2cnc(Nc3ccc(N4CCN(C)CC4)cc3)nc2n1-c1cccc(C(C)(C)O)n1 [AZD1775] | 0.9297 ± 0.0031 | 0.962 ± 0.028 | 0.922 ± 0.021 | 0.951 ± 0.021 | 0.85 ± 0.048 | 0.959 ± 0.025 | 0.423 ± 0.12 | 0.615 ± 0.014 | 0.213 ± 0.0052 | 0.288 ± 0.11 | 0.0863 ± 0.058 | 0.092 ± 0.087 | – | – | – | –
O=C1c2c(O)ccc(O)c2C(=O)c2c(NCCNCCO)ccc(NCCNCCO)c21 [Mitoxantrone Hydrochloride] | 0.556 ± 0.33 | 0.88 ± 0.18 | 0.292 ± 0.31 | 0.858 ± 0.57 | 0.124 ± 0.13 | 0.583 ± 0.73 | 0.0246 ± 0.0088 | 0.312 ± 0.42 | – | – | – | – | 0.834 ± 0.17 | 0.952 ± 0.011 | – | –
C[C@@H]1COCCN1c1cc(C2([S@](C)(=N)=O)CC2)nc(-c2cc[nH]c3nccc2-3)n1 [AZD6738] | 1.04 ± 0.026 | 1.04 ± 0.022 | 1.03 ± 0.046 | 1.03 ± 0.019 | 0.992 ± 0.045 | 0.971 ± 0.022 | 0.862 ± 0.0099 | 0.957 ± 0.13 | 0.648 ± 0.036 | 0.913 ± 0.29 | 0.366 ± 0.094 | 0.55 ± 0.24 | – | – | – | –
Nc1nc(F)nc2c1ncn2[C@@H]1O[C@H](COP(=O)(O)O)[C@@H](O)[C@@H]1O [Fludarabine Phosphate (Fludara)] | 1.0709 ± 0.00057 | 1.04 ± 0.014 | 1.03 ± 0.061 | 1.04 ± 0.012 | 1.02 ± 0.12 | 1.0367 ± 0.00023 | 1.08 ± 0.024 | 1.07 ± 0.029 | 1.06 ± 0.046 | 1.15 ± 0.028 | 1.07 ± 0.027 | 1.16 ± 0.12 | – | – | – | –
O=c1cc(N2CCOCC2)oc2c(-c3cccc4c3sc3ccccc34)cccc12 [NU7441] | 0.982 ± 0.06 | 0.9779 ± 0.0026 | 0.953 ± 0.032 | 0.963 ± 0.011 | 1.02 ± 0.073 | 0.9893 ± 0.0052 | 0.972 ± 0.013 | 1.019 ± 0.0044 | 0.918 ± 0.066 | 0.992 ± 0.14 | 0.834 ± 0.15 | 0.935 ± 0.37 | – | – | – | –
NC(=O)Nc1cc(-c2cccc(F)c2)sc1C(=O)N[C@H]1CCCNC1 [AZD7762] | 1.011 ± 0.0048 | 1.04 ± 0.043 | 0.992 ± 0.051 | 0.959 ± 0.023 | 0.819 ± 0.055 | 0.896 ± 0.16 | 0.36 ± 0.022 | 0.647 ± 0.3 | 0.142 ± 0.014 | 0.299 ± 0.12 | – | – | 1.08 ± 0.072 | 1.02 ± 0.025 | – | –
O=c1cc(-c2cccc3c2Sc2ccccc2S3)oc(N2CCOCC2)c1 | – | – | 1.06 ± 0.039 | 0.988 ± 0.017 | 1.03 ± 0.027 | 1.01 ± 0.065 | 0.9944 ± 0.005 | 0.9715 ± 0.0052 | 0.963 ± 0.023 | 0.998 ± 0.064 | 0.843 ± 0.048 | 0.951 ± 0.17 | – | – | 0.633 ± 0.053 | 0.854 ± 0.38
COc1cc(Nc2ncc3c(n2)-c2ccc(Cl)cc2C(c2c(F)cccc2OC)=NC3)ccc1C(=O)O [Alisertib] | 0.996 ± 0.016 | 1.03 ± 0.1 | 0.752 ± 0.019 | 0.966 ± 0.34 | 0.7 ± 0.092 | 0.844 ± 0.23 | 0.859 ± 0.029 | 0.919 ± 0.16 | 0.781 ± 0.041 | 0.827 ± 0.12 | – | – | 1.056 ± 0.0065 | 1.044 ± 0.0066 | – | –
O=C(CCCCCCC(=O)Nc1ccccc1)NO [Vorinostat (SAHA)] | 0.974 ± 0.013 | 0.9673 ± 0.0094 | 0.995 ± 0.052 | 0.971 ± 0.031 | 0.771 ± 0.18 | 0.825 ± 0.27 | 0.317 ± 0.41 | 0.44 ± 0.58 | – | – | – | – | 1.01 ± 0.075 | 1.03 ± 0.026 | – | –
CCCCCCNC(=O)n1cc(F)c(=O)[nH]c1=O [Carmofur] | 1.01 ± 0.038 | 0.998 ± 0.026 | 1.02 ± 0.019 | 1.007 ± 0.0099 | 1.09 ± 0.081 | 1.05 ± 0.044 | 1.02 ± 0.093 | 1.07 ± 0.22 | 0.956 ± 0.24 | 1.03 ± 0.46 | 0.857 ± 0.2 | 0.924 ± 0.39 | – | – | – | –
CN1CC[C@H](c2c(O)cc(O)c3c(=O)cc(-c4ccccc4Cl)oc23)[C@H](O)C1 [Alvocidib (Flavopiridol)] | 1.11 ± 0.067 | 1.09 ± 0.031 | 0.972 ± 0.013 | 1.16 ± 0.29 | 0.106 ± 0.023 | 0.172 ± 0.022 | 0.163 ± 0.036 | 0.244 ± 0.086 | 0.0793 ± 0.033 | 0.11 ± 0.0096 | – | – | 1.03 ± 0.079 | 1.02 ± 0.067 | – | –
Cc1sc2c(c1C)C(c1ccc(Cl)cc1)=N[C@@H](CC(=O)OC(C)(C)C)c1nnc(C)n1-2 [(+)-JQ-1] | 1.02 ± 0.059 | 0.977 ± 0.047 | 0.93 ± 0.14 | 0.962 ± 0.17 | 0.849 ± 0.19 | 0.98 ± 0.49 | 0.671 ± 0.033 | 0.827 ± 0.26 | 0.5507 ± 0.0013 | 0.757 ± 0.2 | 0.5098 ± 0.0035 | 0.637 ± 0.18 | – | – | – | –
COc1ccc(C2=N[C@@H](c3ccc(Cl)cc3)[C@@H](c3ccc(Cl)cc3)N2C(=O)N2CCNC(=O)C2)c(OC(C)C)c1 [Nutlin-3] | 0.977 ± 0.022 | 0.944 ± 0.013 | 0.981 ± 0.057 | 0.9784 ± 0.0054 | 0.983 ± 0.047 | 1.029 ± 0.0079 | 0.9903 ± 0.0028 | 0.956 ± 0.0068 | 0.965 ± 0.026 | 1.035 ± 0.0094 | 0.9631 ± 0.0059 | 1.06 ± 0.096 | – | – | – | –
